Earlier results as cited in patent US5411479A, “Cancer treatment and catheter for use in treatment” (priority 1993, dated 1995).

Key:
hepatocellular tumor = details: for activity in hepatocellular tumor: systemic chemotherapy, Phase II trials
[1] = system: colon cancer metastatic to the liver; details: for effectiveness of arterial infusion: drug delivered directly to liver tumor cells
[2] = for Local hepatobiliary toxicities (hepatitis, cholecystitis, biliary sclerosis, stenosis and stricture): conventional HAI; for Systemic toxicity of HAI chemotherapy: conventional doses; for Hepatitis (nausea, vomiting, abdominal pain, jaundice, elevated liver transaminases and bilirubin): in vivo

Row | SMILES | objective therapeutic responses (hepatocellular tumor; doxorubicin 60 mg/m^2 every 3 weeks) | toxicity (hepatocellular tumor; doxorubicin 75 mg/m^2 every 3 weeks) | objective response (hepatocellular tumor; doxorubicin 75 mg/m^2 every 3 weeks, East African blacks, of 50 patients treated) | complete response (hepatocellular tumor; doxorubicin 75 mg/m^2 every 3 weeks, among 22 objective responses, 50 patients treated) | activity in hepatocellular tumor (hepatocellular tumor) | effectiveness of arterial infusion [1] | dose-response effect ([1]; in vivo) | Local hepatobiliary toxicities (hepatitis, cholecystitis, biliary sclerosis, stenosis and stricture) [2] | Systemic toxicity of HAI chemotherapy [2] | Hepatitis (nausea, vomiting, abdominal pain, jaundice, elevated liver transaminases and bilirubin) [2]
1 | COc1cccc2c1C(=O)c1c(O)c3c(c(O)c1C2=O)C[C@@](O)(C(=O)CO)C[C@@H]3O[C@H]1C[C@H](N)[C@H](O)[C@H](C)O1 [doxorubicin] | approximately 20 % of the patients | Substantial toxicity | 22 patients | 3 patients | significant activity | – | – | – | – | –
2 | O=c1[nH]cc(F)c(=O)[nH]1 [5-FU, 5-fluorouracil] | – | – | – | – | significant activity | increases their effectiveness | displays a dose-response effect | up to 50 % of the patients | has not been a major problem | has occurred
3 | O=c1[nH]c(=O)n([C@H]2C[C@H](O)[C@@H](CO)O2)cc1F [FUDR, floxuridine] | – | – | – | – | – | increases their effectiveness | – | up to 50 % of the patients | has not been a major problem | has occurred
